Results taken from PMC7738871, “Covalent modification of Keap1 at Cys77 and Cys434 by pubescenoside a suppresses oxidative stress-induced NLRP3 inflammasome activation in myocardial ischemia-reperfusion injury” (Theranostics, 2021).

What was measured:
Keap1 C226S = target: T1, Keap1 C226S (Homo sapiens, UniProt Q14145, C226S); experiment: ITC titration of PBA with Keap1-C226S; type: binding; conditions: 25 ℃
T1 construct: His (N); made in house; host or cells: E. coli BL21 (DE3)
Protocol: The Keap1 was amplified by PCR using a human cDNA library, and was subcloned into the vector pET28-TEV, which contained one tobacco etch virus (TEV) protease cleavage site at the upstream multiple cloning site. The protein was expressed in E. coli BL21 (DE3) cells and incubated at 37 °C until the OD600 value reached 0.6, using 0.2 mM isopropyl β-D-1-thiogalactopyranoside (IPTG) overnight induction at 18 °C. The cells were isolated by centrifugation, resuspended in ice-cold lysis buffer and lysed by cryogenic overpressure cell breaker at 1,200 psi. The lysates were centrifuged for 60 min at 14,000 rpm to obtain the supernatant. Gravity flow purification of Keap1 protein was obtained at room temperature using 1 mL of Ni-NTA and eluted in buffer containing 250 mM imidazole, followed by 1 mL of HiTrap QHP for the second step purification. The final protein was purified and validated by Superdex 200 10/300GL resin.
The mutant plasmid DNA was obtained by PCR. The PCR products were cleaved by DpnI restriction enzymes. The restriction endonuclease-cleaved mixture was subsequently transformed into E. coli DH5α. Colonies were evaluated by colony PCR and sequenced. The mutant plasmid was transformed into E. coli BL21 (DE3) after successful sequencing. The steps for expression and purification of all recombinants were described above.
Isothermal calorimetry (ITC) titration experiments were performed at 25 °C. WT Keap1, Keap1 mutants and PBA were dissolved in binding buffer (40 mM Tris-HCl pH 8.0, 250 mM NaCl). In a typical experiment, 60 μL of PBA (1 mM) was injected 19 times at 2-min intervals from a stirring syringe into the sample cell containing 300 μL of WT protein or mutants (30 μM). The first injection was 0.4 μL of PBA, and the subsequent 18 injections were 2 μL each time. The site-binding models were determined by using MicroCal Origin software.

[1] = test system: primary neonatal mouse cardiomyocytes; experiment: MTT cytotoxicity, primary cardiomyocytes; type: cell-based; conditions: under 240 μM, 48 h
Protocol: The heart was removed from the neonatal C57BL/6 mice and cut into 1 mm^3 pieces in ice […] buffer. The tissues were digested with the mixture of 0.125% trypsin (Gibco, 15090-046) and 0.1% type II collagenase (Gibco, 17101-015) 6 min at 37 °C for three times until the tissues were completely digested. The cells were harvested and seeded in a dish. After 90 min of incubation, the cell culture medium was collected and centrifuged. The centrifuged cardiomyocytes were harvested, seeded on 0.1 % gelatin-coated culture plates with DMEM containing 10% FBS and […] Brdu, and incubated in a 37°C incubator.
Cell viability was determined by MTT assays. PBA was prepared to a stock solution dissolved in dimethyl sulfoxide (DMSO). RAW264.7, H9c2 cells, primary mouse cardiomyocytes were treated with different doses of PBA, and DMSO only as control for 48 h for the toxicity. In addition, H9c2 cells or primary mouse cardiomyocytes were treated with the indicated doses of PBA, diazoxide as positive control, DMSO only as control, then cultured with or without OGD/R treatment. At the end of the experiments, MTT was added into each well at the concentration of 0.5 mg/ml, and incubated at 37 °C for 4 h. […] And the solution was measured at the absorbance of 490 nm by a spectrophotometer (Thermo Fisher Scientific, MA, USA). […]

[2] = test system: Keap1-dependent Nrf2 ubiquitination; experiment: Keap1-dependent Nrf2 ubiquitination in 293T cells; type: cell-based, human
Protocol: Alkylation of the BTB domain of Keap1 by covalent modifiers contributes to the disruption of the Keap1-Cul3 interactions, leading to Nrf2 activation. Next, we investigated the effect of PBA on the modulation of Nrf2 ubiquitination as Nrf2 stability is controlled by ubiquitin-mediated proteasomal degradation. First, 3X Flag-Keap1, Myc-Nrf2 and Ub plasmids were transfected into 293T cells and then, the cells were treated with 30 μM PBA for 20 h and 5 μM MG132 for another 4 h. Cell lysates were pulled down using anti-Myc beads, and immunopurified Nrf2 was examined for the occurrence of Ub by western blotting. […] As shown in Figure 6E-F, PBA could disrupt the interaction of Keap1 and Cul3 in WT-Keap1 cells, while the disruption was blocked in the Cys77S and Cys434-Keap1 mutant cells.
Figure 6 PBA suppresses Keap1-mediated ubiquitination of Nrf2 by disrupting the interaction between Cul3 and Keap1. (A and B) PBA suppressed Nrf2 ubiquitination in a Keap1-Cys77 and C434-dependent manner. First, 293T cells were transfected with WT-Keap1 or C77S and C434S-Keap1, Myc-Nrf2, and Ub plasmids for 24 h and treated with 30 μM PBA. The cell lysates were immunoprecipitated using anti-Myc beads, and the ubiquitination level was evaluated using the anti-Ub antibody. (C and D) PBA induced the dissociation of the Nrf2-Keap1 complex. Then, 293T cells were cotransfected with WT-Keap1 and Flag-Nrf2 plasmids for 24 h and treated with 30 μM PBA for 12 h. The cell lysates were immunoprecipitated with the anti-Flag antibody, and the level of Nrf2 was assessed using the anti-Nrf2 antibody. (E and F) PBA disrupted the interaction between Cul3 and Keap1. […] The cell lysates were immunoprecipitated with the anti-Flag antibody, and the level of Cul3 was measured using the anti-Cul3 antibody. #p < 0.05, ##p < 0.01, ###p < 0.001, the control vs DMSO; *p < 0.05,**p < 0.01, ***p < 0.001, PBA or tBHQ vs DMSO. […] Cell viability was measured by MTT assays. #p < 0.05, ###p < 0.001, the control vs OGD/R; **p < 0.01, ***p < 0.001, OGD/R+PBA vs OGD/R.

T1 sequence (Q14145 whole entry C226S): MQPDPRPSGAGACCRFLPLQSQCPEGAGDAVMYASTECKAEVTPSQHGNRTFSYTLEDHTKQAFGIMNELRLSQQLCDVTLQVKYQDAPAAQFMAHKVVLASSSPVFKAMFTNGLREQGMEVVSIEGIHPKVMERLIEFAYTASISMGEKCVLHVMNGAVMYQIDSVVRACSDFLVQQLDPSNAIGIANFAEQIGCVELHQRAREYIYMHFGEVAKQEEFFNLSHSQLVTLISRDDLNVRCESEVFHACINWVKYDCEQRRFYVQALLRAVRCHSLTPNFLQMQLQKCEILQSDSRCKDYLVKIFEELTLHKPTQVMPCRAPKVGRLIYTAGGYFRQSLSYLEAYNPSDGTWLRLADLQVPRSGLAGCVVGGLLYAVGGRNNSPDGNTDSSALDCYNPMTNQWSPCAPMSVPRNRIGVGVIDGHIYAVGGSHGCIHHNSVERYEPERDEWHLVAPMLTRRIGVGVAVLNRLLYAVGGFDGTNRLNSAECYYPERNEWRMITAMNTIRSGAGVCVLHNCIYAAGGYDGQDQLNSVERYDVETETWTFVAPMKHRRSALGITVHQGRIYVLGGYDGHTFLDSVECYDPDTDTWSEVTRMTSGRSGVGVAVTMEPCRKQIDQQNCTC

Kd (Keap1 C226S): 8.12 µM
T△S (Keap1 C226S): 1.84 ± 0.00 kcal/mol
△G (Keap1 C226S): -6.95 ± 0.00 kcal/mol
△H (Keap1 C226S): -5.11 ± 0.279 kcal/mol
Structure (SMILES): C=C(COC(=O)C=Cc1ccc(O)c(O)c1)C(O)COC1OC(CO)C(O)C(O)C1O (stereo not shown) [PBA, pubescenoside A]
cell toxicity (MTT) [1]: did not exhibit any cell toxicity
Keap1-dependent Nrf2 ubiquitination ([2]; WT Keap1, 30 μM PBA 20 h, 5 μM MG132 4 h): significantly suppressed
protection of Nrf2 from ubiquitination with mutant Keap1 ([2]; mutant Cys77S and Cys434S-Keap1 vectors): unable to protect Nrf2 from ubiquitination
